Test results reported in patent US20190209506A1, “METHODS OF REDUCING OR PREVENTING OXIDATION OF LDL OR LIPID MEMBRANES IN A SUBJECT IN NEED THEREOF” (Amarin Pharmaceuticals Ireland Limited, priority 2018, published 2019).
pIC50: −log10 of the molar value.

Columns and labels:
Assay type in all cases: biochemical
[1] = Glucose-induced membrane lipid peroxidation (LOOH, CHOD-iodide assay) in DLPC/cholesterol vesicles (Examples 4, 5); conditions: for effect on LOOH formation / lipid peroxidation / inhibition of the peroxidative effects of glucose (LOOH formation): 1:30 drug-to-phospholipid mole ratio; for effect on LOOH formation / lipid peroxidation: 72- and 96-hour time points
Description: All test compounds were further diluted in ethanol or aqueous buffer as needed. Glucose was prepared in saline buffer (0.5 mM HEPES, 154 mM NaCl, pH 7.3) at 11.0 mM (200 mg/dL). CHOD-iodide color reagent (stock) was prepared, with slight modification, as described by from El-Saadani et al. (J. […] Samples were shell-dried under nitrogen gas and placed under vacuum for 1 h to remove residual solvent. […] Lipid suspensions were then vortexed for 3 min at ambient temperature to form MLVs. All MLV samples were subjected to time-dependent autoxidation by incubating at 37° C. in an uncovered, shaking water bath. This method allows lipid peroxidation to occur gradually without requiring the use of exogenous initiators. Small aliquots (5-100 μL) of each sample were removed, immediately following MLV preparation (0 hour) and after exposing samples to oxidative conditions for 72 or 96 hour, and combined with 1.0 mL of activated CHOD-iodide color reagent. Aliquot volume was reduced with each successive time point to ensure that spectrophotometric readings were within the optimal adsorption range. Test samples were covered and incubated in darkness at room temperature for at least 4 hr. Sample absorbances were then measured against a CHOD blank at 365 nm using a Beckman DU-640 spectrophotometer. The CHOD colorimetric assay is based on the oxidation of iodide (I^−) by lipid hydroperoxide (LOOH) to form triiodide the quantity of which is directly proportional to the amount of LOOH present in the lipid sample. The molar absorptivity (ε) of I3^− is 2.46×10^4 M^−1 cm^−1 at 365 nm. […] All MLV samples were subjected to time-dependent autoxidation by incubating at 37° C. in an uncovered, shaking water bath. This method allows lipid peroxidation to occur gradually without requiring the use of exogenous initiators. Small aliquots (5-100 μL) of each sample were removed, immediately following MLV preparation (0 hr) and after exposing samples to oxidative conditions for 72 or 96 hr, and combined with 1.0 mL of activated CHOD-iodide color reagent. Aliquot volume was reduced with each successive time point to ensure that spectrophotometric readings were within the optimal adsorption range. Test samples were covered and incubated in darkness at room temperature for at least 4 hr. Sample absorbances were then measured against a CHOD blank at 365 nm using a Beckman DU-640 spectrophotometer. […] The molar absorptivity (ε) of I3^− is 2.46×10^4 M^−1 cm^−1 at 365 nm.

[2] = test system: human LDL; experiment: Copper-induced oxidation of unfractionated LDL, TBARS after 2 hr (Example 6)
Description: Venous blood was collected from healthy volunteers into vacutainer tubes containing sodium EDTA. Plasma was separated by centrifugation at 3000 g for 25 min at 4° C. and adjusted to a density of 1.020 g/mL with KBr. Triglyceride-rich lipoproteins (TGRL) and LDL fractions were then isolated by sequential centrifugation at 70,000 rpm at 4° C. in a Beckman LE-80 ultracentrifuge using a Beckman 50.4Ti rotor (Beckman Coulter, Inc., Fullerton, Calif.). The TGRL fraction (with a relative density of <1.020) was aspirated from the top of the centrifugate and discarded, leaving an LDL-enriched infranate (with a relative density of 1.020 to 1.063). The plasma LDL fraction was further fractionated into LDL1, LDL2, LDL3, and LDL4 (sdLDL) subfractions with relative densities of 1.020 to 1.035, 1.035 to 1.050, 1.050 to 1.063, and 1.063 to 1.075, respectively. The sdLDL subfraction was retained for additional experimentation. Plasma and lipoprotein fractions were maintained at 4° C. and protected from excessive exposure to light. […]
LDL and sdLDL subfractions (0.6 mL each) were incubated with either 10 μL vehicle (ethanol) or 10 μL drug stock solution for 30 min to 1 hr at 37° C. […] Sample TBARS concentrations were determined spectrophotometrically by measuring sample absorbances against a standard curve derived from the hydrolysis of 1,1,3,3-tetramethoxypropane.

[3] = test system: human sdLDL; experiment: Glucose-induced sdLDL oxidation, MDA/TBARS (Example 10); conditions: glucose 200 mg/dL
Description: Vitamin E (α-tocopherol) purchased from Sigma-Aldrich was prepared in ethanol at 1.0 mM (ε=3.06×10^4M^−1 cm^−1 at 294 nm) prior to experimental use. Test compounds were further diluted in ethanol or aqueous buffer as needed. Phosphate Buffered Saline (PBS) purchased from Sigma-Aldrich was prepared in double distilled water at 10 mM (138 mM NaCl, 2.7 mM KCl, pH 7.4). Glucose prepared in PBS was added to test samples to achieve a final concentration of 11.0 mM (200 mg/dL).
LDL and sdLDL were isolated from the plasma of healthy volunteers by iodixanol density gradient ultracentrifugation and adjusted to a final apolipoprotein concentration of 10 mg/mL. […] Sample aliquots were incubated at 100° C. for 30 minutes and then assayed for the formation of thiobarbituric acid-reactive substances (TBARS), having a molar absorptivity (ε) value of 1.56×10^5 M^−1 cm^−1 at 532 nm and were derived principally from the reaction of thiobarbituric acid with malondialdehyde (MDA). Lipid oxidation was measured by the colorimetric detection of malondialdehyde (MDA), a marker of oxidative stress.

In the case of `Cc1c(C)c2c(c(C)c1O)CC[C@@](C)(CCC[C@H](C)CCC[C@H](C)CCCC(C)C)O2` [vitamin E, α-tocopherol, reference compound], the “effect on LOOH formation / lipid peroxidation” value ([1]; glucose) was “no significant effect on lipid peroxidation”, the “effect on LDL oxidation” value ([2]; 1.0 μM to 10.0 μM, data not shown) was “did not inhibit LDL oxidation at any concentration” and the “effect on glucose-induced sdLDL oxidation” value ([3]; 10 μM, 1 hr) was “failed to inhibit sdLDL oxidation”. The “increase of sdLDL oxidation compared to glucose-treated controls” value ([3]; 10 μM, 1 hr) was 63%.

For `CC/C=C\C/C=C\C/C=C\C/C=C\C/C=C\CCCC(=O)O` [EPA, cis-5,8,11,14,17-eicosapentaenoic acid], the “antioxidant effect (LOOH formation)” value ([1]; 1.0 μM, glucose 200 mg/dL, 96 hours) was “separate and potent antioxidant effects”, the “inhibition of the peroxidative effects of glucose (LOOH formation)” value ([1]; glucose 200 mg/dL, 72 hours) was 88% and the “inhibition of the peroxidative effects of glucose (LOOH formation)” value ([1]; glucose 200 mg/dL, 96 hours) was 86%. The “effect on LOOH formation / lipid peroxidation” value ([1]; glucose) was “significantly inhibited LOOH formation”, the “effect on membrane LOOH formation” value ([1]; EPA at 1.0 and 5.0 μM, glucose) was “inhibit membrane LOOH formation in a dose-dependent manner” and the “LOOH formation compared to vehicle, glucose only, glucose and EA, glucose and ETE” value ([1]; Example 5, model membranes treated with glucose) was “significantly less LOOH formation”. The “reduction of TBARS levels” value ([2]; highest concentration tested (10.0), unfractionated LDL) was 17%, the “inhibition of sdLDL oxidation compared to vehicle controls” value ([3]; 10.0 μM) was 94% and the “sdLDL oxidation (formation of MDA)” value ([3]; 10.0 μM) was 0.2 ± 0.1 µM. For the same compound, the pIC50 [3] was greater than 6.00.
